Measurements published in patent US20240226211A9, “SEAWEED EXTRACTS, ISOLATED COMPOUNDS, AND METHODS OF TREATMENT” (University of Florida Research Foundation, Incorporated, priority 2017, published 2024).
Entries after “also recorded” stand apart in the source; their conditions may differ.

Key:
[1] = system: NO production in MEF cells; assay: NO assay in MEF cells; format: cell-based, murine; settings: stimulated with IFN-γ and TNF-α
Description: RAW264.7 cells (2×10^4 cells/well), wild-type (8×10^3 cells/well), Nrf2−/−(7×10^3 cells/well), and Keap1−/−(5×10^3 cells/well) MEF were seeded into 96-well format. Cells were pretreated for 1 h with a solvent control (DMSO, 1%, v/v) or serial dilutions of isolated compounds or extracts before addition of LPS (1 μg/mL) or IFN-γ (10 ng/mL). […] In each case, 50 μL of the media was combined with 50 μL Griess Reagent (Promega). Absorbance was measured at 540 nm and compared with a calibration curve generated using the provided […] standard.

[2] = system: ARE-driven genes (GCLC, Gclm, TXNRD1, GSTA4, HMOX1); assay: qPCR of ARE-driven genes in IMR-32 cells; format: cell-based, human
Description: (§1) The RNeasy Mini Kit (Qiagen) was used to collect total RNA from cells, while for mouse tissue, TRIzol reagent (Invitrogen) was used. In each case, total RNAs (2 μg) were reverse-transcribed into cDNAs, which were used as templates for TaqMan gene expression assay (Applied Biosystems) and detected using the 7300 Real-Time PCR System (Applied Biosystems). Each qPCR sample was tested in triplicate as a 25 μL total reaction volume (12.5 μL of Taqman 2× universal master mix, 1.25 μL of a 20× TaqMan gene expression assay probe, 1 μL of the above cDNA, and 10.25 μL of RNase-free sterile water). The qPCR method was designed as following: 50° C. for 2 min, 95° C. for 10 min, and 40 cycles of 95° C. for 15 s and 60° C. for 1 min. Endogenous controls used included GAPDH for IMR-32 cells and β-actin to normalize for RAW264.7 cells and mouse tissues.

[3] = system: PGE2 production in RAW264.7 cells; assay: PGE2 assay in RAW264.7 cells; format: cell-based, mouse; settings: RAW264.7, IFN-γ
Description: RAW264.7 cells were seeded into a 96 well format at 4×10^4 cells/well and incubated overnight at 37° C. Cells were treated with a solvent control (DMSO, 1%, v/v) or serial dilutions of isolated compounds or extracts for 1 h before the addition of IFN-γ (10 ng/mL). […] The experiment was performed using the standard manufacturer's protocol.

[4] = system: Staphylococcus aureus; assay: Preliminary antibacterial testing; format: cell-based
[5] = Toxicity observation in mice after oral gavage; format: in vivo; settings: oral gavage 3 consecutive days
Description: The experiments were approved by the Institutional Animal Care & Use Committee at the University of Florida. Groups of 5-10 wild type male mice (C57BL/6J) were used for each treatment type. The mice were maintained under approved standard conditions. Cymopol (1) and the non-polar extract (NP extract) were dissolved in Chremophor EL (Sigma) containing 10% DMSO and administered via oral gavage for 3 consecutive days, with 24 h between each treatment. […] 12 h following the final treatment, the mice were euthanized in 100% CO2. The tissues were harvested immediately, frozen on dry ice, and kept at −80° C. until analyzed.

[6] = system: Nqo1; assay: Nqo1 transcript levels in RAW264.7 macrophage cells; format: cell-based, mouse; settings: 10 μM Compound 1, IFN-γ
Description: as §1
RAW264.7 cells were seeded in 6-well plates (8×10^5 cells/well) and incubated at 37° C. overnight.

[7] = system: zebrafish; assay: Phenotypic toxicity in zebrafish; format: in vivo, Danio rerio; settings: embryos and adults
[8] = system: Nqo1; assay: Nqo1 activity assay in MEFs; format: cell-based, murine
Description: Wild-type (8×10^3 cells/well), Nrf2−/− (8×10^3 cells/well), and Keap1−/− (4×10^3 cells/well) MEFs were seeded into a 96-well format and incubated overnight at 37° C. Cells were treated with a solvent control (DMSO, 1%, v/v) or serial dilutions of isolated compounds or extracts for 40 hours.

[9] = system: NQO1; assay: Immunoblot of NQO1 after NAC pre-treatment in IMR-32 cells; format: cell-based, human; settings: pre-treated with N-acetylcysteine
Description: IMR-32 cells were seeded into 6-well plates (7×10^5 cells/well) and incubated at 37° C. for 24 h. The cells were then treated with a solvent control (DMSO, 1%, v/v), isolated compounds, or extracts. After 24 h, cells were lysed in 200 μL of PhosphoSafe buffer (Novagen). Protein concentrations were measured by using a BCA assay kit (Pierce). Equal amounts of total protein were separated using SDS-PAGE (NuPAGE® Novex® 4-12% Bis-Tris Mini gels, Invitrogen) and transferred onto a PVDF membrane. Membranes were blocked overnight with 5% BSA at 4° C. and incubated with indicated primary antibodies for 2 h at room temperature. After washing, the membranes were then incubated with the corresponding secondary antibodies (HRP-linked) for 1 h at room temperature and detected with Supersignal Femto Western Blotting kit (Pierce). For assays in the presence of N-acetylcysteine (NAC), the cells were pretreated with the antioxidant (NAC at 1 mM) for 2 h prior to treatment with the solvent control, isolated compounds, or extracts.

[10] = system: large intestine transcriptome; assay: RNAseq of mouse large intestine; format: in vivo
Description: Briefly, 1st strand cDNA is primed by a modified N6 primer (the SMART N6 CDS primer), then base-pairs with these additional nucleotides, creating an extended template. The reverse transcriptase then switches templates and continues transcribing to the end of the oligonucleotide, resulting single-stranded cDNA contains sequences that are complementary to the SMARTer oligonucleotide. The SMARTer anchor sequence and the N6 sequence serve as universal priming sites for DNA amplification by PCR for 10 cycles. […] Libraries were quantitated by Bioanalyzer and qPCR (Kapa Biosystems, catalog number: KK4824). Finally, the libraries were pooled equal molar concentration and sequenced by Illumina 2X75 NextSeq 500.
In preparation for sequencing, barcoded libraries were sized on the bioanalyzer, quantitated by QUBIT and qPCR (Kapa Biosystems, catalog number: KK4824). Individual samples were pooled equimolarly at 4 nM. […] For RNA seq, 50-100 million reads provided sufficient depth for transcriptome analysis.
The web-based analysis tool, IPA, was used to further investigate the effect of the cymopols on the large intestine.

[11] = system: Hmox1; assay: Hmox1 transcript levels in mouse organs after oral gavage; format: in vivo; settings: mice, particularly digestive tract
Description: as §1
The experiments were approved by the Institutional Animal Care & Use Committee at the University of Florida. Groups of 5-10 wild type male mice (C57BL/6J) were used for each treatment type. The mice were maintained under approved standard conditions. […] The tissues were harvested immediately, frozen on dry ice, and kept at −80° C. until analyzed.
A low dose and a high dose of cymopol (1) or the NP extract were administered to 4-week-old male mice via oral gavage.

In the case of `CC(C)=CCC/C(C)=C/Cc1cc(O)c(Br)cc1O` [Compound 1, (E)-2-bromo-5-(3,7-dimethylocta-2,6-dien-1-yl)benzene-1,4-diol], the “NO production in wild-type MEFs” value [1] is reported as “minimized NO production; also recorded: restore basal level of NO”, the “anti-inflammatory effects in Nrf2−/− and Keap1−/− MEFs” value [1] is reported as “did not demonstrate appreciable anti-inflammatory effects” and the “transcription of a series of ARE-driven genes” value [2] is reported as “induce the transcription of a series of ARE-driven genes”. For the same molecule, the “production of pro-inflammatory PGE2” value [3] was “effectively reduced the production”, the antibacterial activity [4] was “inhibited” and the apparent toxicity [5] was “No apparent toxicity was observed”. For the same molecule, the “increase of Nqo1 transcript levels” value [6] was over 96%, the toxicity in zebrafish [7] was “demonstrate toxicities at fairly low concentrations” and the Nqo1 enzymatic activity ([8]; each MEF cell type relative to DMSO control) was “induce Nqo1 enzymatic activity in a dose-dependent manner”. For the same molecule, the “relative Nqo1 activity, wild-type versus knockout MEFs” value ([8]; high concentrations) was “more so in wild-type than in Nrf2 and Keap1 knockout MEFs”, the “translation of NQO1 after NAC pre-treatment” value [9] was “still able to induce the translation of NQO1” and the PI3K/Akt/mTOR pathway ([10]; large intestine RNAseq, IPA) was “greatly affected”. For the same molecule, the “Wnt/β-catenin or Sonic Hedgehog signalling” value ([10]; large intestine RNAseq, IPA) was “no notable difference”, the “transcript levels of TNFα” value ([10]; large intestine, low dose) was “down-regulated” and the “transcript levels of Hmox1 in various organs” value [11] was “elevated transcript levels of Hmox1”.
